Assay type in all cases: biochemical
One assay concerns the target T1, PDK1 enzyme (Homo sapiens, UniProt O15530).
T1 sequence (O15530 1-556): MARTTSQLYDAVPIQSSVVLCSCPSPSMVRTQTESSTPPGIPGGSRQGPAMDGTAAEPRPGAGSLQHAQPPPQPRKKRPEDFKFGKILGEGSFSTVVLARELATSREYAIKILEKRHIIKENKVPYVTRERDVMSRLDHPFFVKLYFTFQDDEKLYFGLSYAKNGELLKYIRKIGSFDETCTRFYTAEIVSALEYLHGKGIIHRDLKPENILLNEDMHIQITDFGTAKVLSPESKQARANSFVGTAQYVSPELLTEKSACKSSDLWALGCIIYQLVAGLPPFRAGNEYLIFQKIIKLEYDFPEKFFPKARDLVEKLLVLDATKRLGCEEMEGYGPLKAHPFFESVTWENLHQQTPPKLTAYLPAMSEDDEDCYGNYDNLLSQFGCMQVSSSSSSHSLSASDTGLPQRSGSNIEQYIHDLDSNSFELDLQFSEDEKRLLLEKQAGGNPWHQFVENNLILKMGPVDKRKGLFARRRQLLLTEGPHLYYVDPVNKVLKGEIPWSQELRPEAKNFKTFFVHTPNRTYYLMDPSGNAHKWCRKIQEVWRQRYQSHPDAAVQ
Description: PDK1 kinase inhibition assay (33P phosphorylation of synthetic peptide, filter plate). As to conditions: 0.01 mM ATP, 60 min at 30° C.; read-out: PDK1 IC50. In short, it runs like this: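 PDK1 and inhibitor incubated 60 min at 30° C with 0.01 mM ATP plus 33P-γ-ATP, 0.075 mM peptide, 7.5 mM Mg acetate, 0.1 mg/ml BSA in 0.05 M Tris.HCl pH 7.5. Stopped with phosphoric acid; phosphorylated peptide captured on filter plate and counted by scintillation.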

A further assay addresses T2, GST-Chk1 enzyme (Homo sapiens, UniProt O14757).
T2 sequence (O14757 1-476): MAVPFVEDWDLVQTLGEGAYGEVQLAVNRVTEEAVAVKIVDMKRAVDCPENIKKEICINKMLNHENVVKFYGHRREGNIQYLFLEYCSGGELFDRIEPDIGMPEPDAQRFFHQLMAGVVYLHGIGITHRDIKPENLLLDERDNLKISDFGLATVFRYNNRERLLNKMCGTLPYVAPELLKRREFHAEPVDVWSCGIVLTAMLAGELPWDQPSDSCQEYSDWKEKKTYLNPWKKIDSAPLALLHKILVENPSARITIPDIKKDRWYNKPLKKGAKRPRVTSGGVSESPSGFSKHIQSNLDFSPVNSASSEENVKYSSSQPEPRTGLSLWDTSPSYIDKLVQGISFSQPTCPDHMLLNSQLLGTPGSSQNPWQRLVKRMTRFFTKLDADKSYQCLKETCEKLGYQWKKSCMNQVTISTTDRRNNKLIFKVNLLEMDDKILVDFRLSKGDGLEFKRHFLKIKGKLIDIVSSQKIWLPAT
Put plainly: Chk1 kinase inhibition assay (33P phosphorylation of Chktide, filter plate). As to conditions: 0.01 mM ATP, 11 nM GST-Chk1, 40 minutes at 30° C.; read-out: Chk1 IC50. In short, it runs like this:
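Inhibitor and enzyme reacted 40 min at 30 °C, then stopped with 50 mM phosphoric acid. Phosphorylated peptide captured on filter plates and quantified by scintillation counting.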

For assay [1], the target named is CDK-2 enzyme, complexed with cyclin A (Homo sapiens, UniProt P24941). Description: CDK2 enzyme inhibition assay (33P phosphorylation of peptide […], filter plate). To be noted: CDK-2/cyclin A, 0.1 mM ATP, 40 min at 30° C. In short, it runs like this: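 Cyclin A–complexed CDK2 (0.4 U/ml) incubated with inhibitor, 0.03 mM peptide, 0.1 mM ATP plus 33P-γ-ATP in HEPES pH 7.5, 7.5 mM Mg acetate, 0.1 mg/ml BSA, 40 min at 30 °C. Stopped with phosphoric acid; phosphorylated peptide captured on filter plates and counted by scintillation.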

Broadly, the IC50 is the concentration at which inhibition is half-maximal. Take `CN(C)S(=O)(=O)c1ccc(Nc2cc(Cl)nc3c(Br)cnn23)cc1` [Example 76]: the IC50 was over 200 µM on PDK1 enzyme, over 200 µM at GST-Chk1 enzyme and 0.128 µM in assay [1].

With `CC(C)Oc1cc(Nc2ccc(S(=O)(=O)N(C)C)cc2)n2ncc(C(C)C)c2n1` [Example 64], the IC50 on PDK1 enzyme was over 200 µM; on GST-Chk1 enzyme, over 200 µM; in assay [1], 0.395 µM.

Regarding `CCc1cnn2c(Nc3ccc(S(=O)(=O)N(C)C)cc3)cc(Cl)nc12` [Example 52], the values for the IC50 (at PDK1 enzyme; at GST-Chk1 enzyme; in assay [1]) were over 200 µM, over 200 µM and 0.239 µM, respectively.

Consider `O=S(=O)(c1ccc(Nc2ccnc3ccnn23)cc1)N1CCOCC1` [Example 16], for which the IC50 at PDK1 enzyme was over 200 µM; at GST-Chk1 enzyme it was over 200 µM; in assay [1] it was 3.35 µM.

Consider `CC(C)c1cnn2c(Nc3ccc(S(N)(=O)=O)cc3)cc(Cl)nc12` [Example 32], for which the results for the IC50 (at PDK1 enzyme; on GST-Chk1 enzyme; in assay [1]) were over 200 µM, over 200 µM and 0.062 µM, respectively.

`CC(C)c1cnn2c(Nc3ccc(S(=O)(=O)N(C)C)cc3)cc(N(C)c3ccncc3)nc12` [Example 119]: the IC50 on PDK1 enzyme is over 200 µM; at GST-Chk1 enzyme it was over 200 µM; in assay [1], 22.7 µM.

Regarding `Oc1ccc(-c2cc(Nc3cccc(Cl)c3)n3nccc3n2)cc1` [Example 5], the IC50 was over 200 µM at PDK1 enzyme, over 200 µM on GST-Chk1 enzyme and 3.96 µM in assay [1].

Consider `CC(C)c1cnn2c(Nc3ccc(S(=O)(=O)N(C)C)cc3)cc(N3CCC[C@H]3CN)nc12` [Example 97], for which the IC50 at PDK1 enzyme is over 200 µM; on GST-Chk1 enzyme, 4.75 µM; in assay [1], 7.81 µM.

As for `CC[C@H](CO)Nc1cc(Nc2ccc(S(=O)(=O)N(C)C)cc2)n2ncc(C(C)C)c2n1` [Example 83], the half-maximal inhibitory concentration (IC50) at PDK1 enzyme was over 200 µM; at GST-Chk1 enzyme, over 200 µM; in assay [1], 0.14 µM.

As for `CC(C)c1cnn2c(Nc3ccc(S(=O)(=O)N(C)C)cc3)cc(N3CCCC(C(=O)N(C)C)C3)nc12` (stereo not drawn) [Example 92], the IC50 is over 200 µM at PDK1 enzyme, over 200 µM at GST-Chk1 enzyme and 10.5 µM in assay [1].

Regarding `CC(C)c1cnn2c(Nc3ccc(S(=O)(=O)N(C)C)cc3)cc(NC3CCN(C)CC3)nc12` [Example 69], the concentration for half-maximal inhibition (IC50) came out at 31.6 µM on PDK1 enzyme, 19.3 µM at GST-Chk1 enzyme and 0.181 µM in assay [1].

With `CC(C)c1cnn2c(Nc3ccc(S(=O)(=O)N(C)C)cc3)cc(N3CCCC(C(=O)O)C3)nc12` (stereo not drawn) [Example 82], the IC50 on PDK1 enzyme is over 200 µM; on GST-Chk1 enzyme, over 200 µM; in assay [1], 4.23 µM.

In the case of `CS(=O)(=O)c1ccc(Nc2cc(OC3CCCCC3)nc3ccnn23)cc1` [Example 21], the figures for the IC50 (at PDK1 enzyme; on GST-Chk1 enzyme; in assay [1]) were over 200 µM, over 200 µM and 1.32 µM, respectively.

Turning to `CC(C)COc1cc(Nc2ccc(S(=O)(=O)N(C)C)cc2)n2ncc(C(C)C)c2n1` [Example 40], the IC50 on PDK1 enzyme was over 200 µM; on GST-Chk1 enzyme, over 200 µM; in assay [1], 1.16 µM.

Take `COCCNS(=O)(=O)c1ccc(Nc2cc(Cl)nc3c(C(C)C)cnn23)cc1` [Example 36]: the IC50 at PDK1 enzyme is over 200 µM; on GST-Chk1 enzyme, over 200 µM; in assay [1], 0.715 µM.

On to `CC(C)c1cnn2c(Nc3ccc(S(=O)(=O)N(C)C)cc3)cc(CN3CCC(N)CC3)nc12` [Example 157], for which the IC50 on PDK1 enzyme was 72 µM; at GST-Chk1 enzyme, 8 µM; in assay [1], 0.037 µM.

`CC(C)c1cnn2c(Nc3ccc(S(C)(=O)=O)cc3)cc(N(C)CCN(C)C)nc12` [Example 58]: the results for the IC50 (on PDK1 enzyme; at GST-Chk1 enzyme; in assay [1]) were over 200 µM, 51.7 µM and 1.94 µM, respectively.

Consider `CC(C)c1cnn2c(Nc3ccc(S(=O)(=O)N4CCC(O)CC4)cc3)cc(Cl)nc12` [Example 33], for which the IC50 on PDK1 enzyme is over 200 µM; on GST-Chk1 enzyme, over 200 µM; in assay [1] it was 0.271 µM.

Regarding `CC(C)c1cnn2c(Nc3ccc(S(C)(=O)=O)cc3)cc(OCCN(C)C)nc12` [Example 53], the IC50 was over 200 µM on PDK1 enzyme, over 200 µM at GST-Chk1 enzyme and 8.41 µM in assay [1].

(Values after US20070179161A1, “Pyrazolopyrimidine compounds and their use in medicine” (VERNALIS (CAMBRIDGE) LIMITED., priority 2003, published 2007).)
